Assay results published in ChEMBL document CHEMBL2040759, “Design, synthesis and anticancer activity of nitric oxide donating/chalcone hybrids” (2012).

Key:
Format in all cases: functional
[1] = system: NCI-H23; assay: Growth inhibition of human NCI-H23 cells after 48 hrs by SRB assay; settings: NCI-H23, 48 h
[2] = system: M14; assay: Growth inhibition of human M14 cells after 48 hrs by SRB assay; settings: M14, 48 h
[3] = system: EKVX; assay: Growth inhibition of human EKVX cells after 48 hrs by SRB assay
[4] = system: SK-OV-3; assay: Growth inhibition of human SKOV3 cells after 48 hrs by SRB assay; settings: SK-OV-3, 48 h
[5] = system: A549; assay: Growth inhibition of human A549/ATCC cells after 48 hrs by SRB assay; settings: A549, 48 h
[6] = system: TK-10; assay: Growth inhibition of human TK10 cells after 48 hrs by SRB assay; settings: TK-10, 48 h
[7] = system: DU-145; assay: Growth inhibition of human DU145 cells after 48 hrs by SRB assay; settings: DU-145, 48 h
[8] = system: NCI-H226; assay: Growth inhibition of human NCI-H226 cells after 48 hrs by SRB assay; settings: NCI-H226, 48 h
[9] = Growth inhibition of human RPMI18226 cells after 48 hrs by SRB assay; settings: RPMI18226, 48 h
[10] = system: HCT-15; assay: Growth inhibition of human HCT15 cells after 48 hrs by SRB assay; settings: HCT-15, 48 h
[11] = system: A498; assay: Growth inhibition of human A498 cells after 48 hrs by SRB assay; settings: A498, 48 h
[12] = system: MDA-MB-231; assay: Growth inhibition of human MDA-MB-231 cells after 48 hrs by SRB assay; settings: MDA-MB-231, 48 h
[13] = system: U-251; assay: Growth inhibition of human U251 cells after 48 hrs by SRB assay; settings: U-251, 48 h
[14] = system: LOX IMVI; assay: Growth inhibition of human LOXIMVI cells after 48 hrs by SRB assay
[15] = Growth inhibition of human Hs 578T cells after 48 hrs by SRB assay
[16] = system: OVCAR-3; assay: Growth inhibition of human OVCAR3 cells after 48 hrs by SRB assay; settings: OVCAR-3, 48 h
[17] = system: HOP-62; assay: Growth inhibition of human HOP62 cells after 48 hrs by SRB assay; settings: HOP-62, 48 h
[18] = system: UACC-62; assay: Growth inhibition of human UACC62 cells after 48 hrs by SRB assay; settings: UACC-62, 48 h
[19] = system: CAKI-1; assay: Growth inhibition of human Caki1 cells after 48 hrs by SRB assay; settings: CAKI-1, 48 h
[20] = system: HT-29; assay: Growth inhibition of human HT-29 cells after 48 hrs by SRB assay; settings: HT-29, 48 h
[21] = system: KM12; assay: Growth inhibition of human KM12 cells after 48 hrs by SRB assay; settings: KM12, 48 h
[22] = system: PC-3; assay: Growth inhibition of human PC3 cells after 48 hrs by SRB assay; settings: PC-3, 48 h
[23] = system: SK-MEL-5; assay: Growth inhibition of human SK-MEL-5 cells after 48 hrs by SRB assay; settings: SK-MEL-5, 48 h
[24] = system: MDA-MB-468; assay: Growth inhibition of human MDA-MB-468 cells after 48 hrs by SRB assay; settings: MDA-MB-468, 48 h
[25] = system: CCRF-CEM; assay: Growth inhibition of human CCRF-CEM cells after 48 hrs by SRB assay
[26] = system: SK-MEL-28; assay: Growth inhibition of human SK-MEL-28 cells after 48 hrs by SRB assay; settings: SK-MEL-28, 48 h
[27] = system: ACHN; assay: Growth inhibition of human ACHN cells after 48 hrs by SRB assay
[28] = system: HCC 2998; assay: Growth inhibition of human HCC2998 cells after 48 hrs by SRB assay; settings: HCC 2998, 48 h
[29] = system: Malme-3M; assay: Growth inhibition of human MALME-3M cells after 48 hrs by SRB assay
[30] = system: OVCAR-8; assay: Growth inhibition of human OVCAR8 cells after 48 hrs by SRB assay; settings: OVCAR-8, 48 h
[31] = system: IGROV-1; assay: Growth inhibition of human IGROV1 cells after 48 hrs by SRB assay; settings: IGROV-1, 48 h
[32] = system: SR; assay: Growth inhibition of human SR cells after 48 hrs by SRB assay
[33] = system: MOLT-4; assay: Growth inhibition of human MOLT4 cells assessed as cell growth at 10^-5 M after 48 hrs by SRB assay; settings: MOLT-4, 48 h, read-out: Activity
[34] = read-out: LC50 (the source's name)

SMILES: O=C(CO[N+](=O)[O-])Nc1ccc(C(=O)/C=C/c2ccc(Cl)cc2)cc1
- GI50 [1]: 4.55 µM
- TGI [1]: 22.1 µM
- CC50 [1, 34]: 81.1 µM
- GI50 [2]: 2.05 µM
- TGI [2]: 4.96 µM
- CC50 [2, 34]: 17.9 µM
- GI50 [3]: 15 µM
- TGI [3]: 74.6 µM
- CC50 [3, 34]: > 100 µM
- GI50 [4]: 10.1 µM
- TGI [4]: 65.9 µM
- CC50 [4, 34]: > 100 µM
- GI50 [5]: 5.71 µM
- TGI [5]: 20.6 µM
- CC50 [5, 34]: 57.9 µM
- GI50 [6]: 8.37 µM
- TGI [6]: 25.1 µM
- CC50 [6, 34]: 68.2 µM
- GI50 [7]: 3.41 µM
- TGI [7]: 13.5 µM
- CC50 [7, 34]: 36.7 µM
- GI50 [8]: 5.15 µM
- TGI [8]: 29 µM
- CC50 [8, 34]: > 100 µM
- GI50 [9]: 1.41 µM
- TGI [9]: 8.36 µM
- CC50 [9, 34]: > 100 µM
- GI50 [10]: 2.03 µM
- TGI [10]: 6.53 µM
- CC50 [10, 34]: 59.7 µM
- GI50 [11]: 15.4 µM
- TGI [11]: 54.9 µM
- CC50 [11, 34]: > 100 µM
- GI50 [12]: 5.39 µM
- TGI [12]: 21.2 µM
- CC50 [12, 34]: 62 µM
- GI50 [13]: 1.48 µM
- TGI [13]: 3.15 µM
- CC50 [13, 34]: 6.68 µM
- GI50 [14]: 1.59 µM
- TGI [14]: 3.51 µM
- CC50 [14, 34]: 7.74 µM
- GI50 [15]: 2.85 µM
- TGI [15]: 14.2 µM
- CC50 [15, 34]: > 100 µM
- GI50 [16]: 2.22 µM
- TGI [16]: 6.55 µM
- CC50 [16, 34]: 23.9 µM
- GI50 [17]: 3.11 µM
- TGI [17]: 9.73 µM
- CC50 [17, 34]: 34.6 µM
- GI50 [18]: 2.76 µM
- TGI [18]: 11 µM
- CC50 [18, 34]: 51.3 µM
- GI50 [19]: 11.8 µM
- TGI [19]: 54.5 µM
- CC50 [19, 34]: > 100 µM
- GI50 [20]: 2.36 µM
- TGI [20]: 6.36 µM
- CC50 [20, 34]: > 100 µM
- GI50 [21]: 1.54 µM
- TGI [21]: 3.1 µM
- CC50 [21, 34]: 6.23 µM
- GI50 [22]: 2.74 µM
- TGI [22]: 14.8 µM
- CC50 [22, 34]: 72.9 µM
- GI50 [23]: 4.23 µM
- TGI [23]: 15.4 µM
- CC50 [23, 34]: 39.8 µM
- GI50 [24]: 2.06 µM
- TGI [24]: 5.07 µM
- CC50 [24, 34]: 17.1 µM
- GI50 [25]: 2.73 µM
- TGI [25]: 16.5 µM
- CC50 [25, 34]: > 100 µM
- GI50 [26]: 4.96 µM
- TGI [26]: 18.1 µM
- CC50 [26, 34]: 49.5 µM
- GI50 [27]: 3.3 µM
- TGI [27]: 17 µM
- CC50 [27, 34]: > 100 µM
- GI50 [28]: 1.75 µM
- TGI [28]: 3.64 µM
- CC50 [28, 34]: 7.57 µM
- GI50 [29]: 2.13 µM
- TGI [29]: 6.61 µM
- CC50 [29, 34]: 76.2 µM
- GI50 [30]: 3.24 µM
- TGI [30]: 14 µM
- CC50 [30, 34]: 63 µM
- GI50 [31]: 13.4 µM
- TGI [31]: 30 µM
- CC50 [31, 34]: 67.4 µM
- GI50 [32]: 3.64 µM
- TGI [32]: > 100 µM
- CC50 [32, 34]: > 100 µM

SMILES: O=C(CO[N+](=O)[O-])Nc1ccc(C(=O)/C=C/c2ccc3c(c2)OCO3)cc1
- growth at 10 µM [33]: 99.7%
